Source: patent publication US10918628B2, “Treatment of synucleinopathies” (Deutsches Zentrum für Neurodegenerative Erkrankungen e. V. …, priority 2016, dated 2021)
Several values for one entry are separate records, joined by “and”; a condition that tells them apart may be missing. Equal values may be shown once. Read-outs that look alike come from different tables or passages of the source.

What was measured:
[1] = test system: α-syn overexpressing LUHMES cells; test: LDH release into the culture medium as measure of α-syn-induced cell death; assay type: cell-based, human; details: for effect of specific PDE inhibitors on α-syn mediated toxicity (LDH release): FIG. 2B-I
caspase 3 and 7 = test: CellEvent fluorescence signal for activated caspase 3 and 7; assay type: cell-based, human; details: 20 μM vinpocetine; untransduced 1.0±0.2, α-syn with DMSO 74.8±5.7
Excerpt: (§1) FIG. 3 The PDE1 inhibitor vinpocetine reduces cell death and 37 kDa α-syn specimen. (A) Cell counts of untransduced control cells (Ctrl, white bar), solvent treated α-syn transduced cells (black bar) and α-syn transduced cells with treated with different concentrations of vinpocetine (dark grey bars) confirmed the protective effect of vinpocetine. […] (C) Quantification of the CellEvent™ signal in untransduced control cells (Ctrl, left bar), α-syn transduced cells treated with solvent (black bar) and vinpocetine treated α-syn transduced cells (dark grey bar). (D) Representative Western blot of control cells (Ctrl), α-syn transduced cells without or with treatment vinpocetine in different concentrations. (E-H) Quantification of specific α-syn positive Western blot bands. […] The density of the 37 kDa band positively correlated with the LDH release (r^2=0.99, P<0.001, I) and negatively correlated with the number of vital cells (r^2=0.96, P<0.01, J). *P<0.05, **P<0.01, ***<0.001, n.s. not significant, one-way ANOVA with Tukey's HSD post-hoc test. Data are mean±s.e.m.
(§2) To validate the data from the LDH measurement, we determined the number of vital 4′,6-diamidino-2-phenylindole (DAPI)-stained nuclei in untransduced control cells and α-syn overexpressing cells treated without or with ascending concentrations of vinpocetine. […]

[2] = test system: TH+ neurons in the substantia nigra; test: Stereological counting of TH+ cells in the substantia nigra after intranigral rAAV injection; assay type: in vivo, mice
Procedure: FIG. 5 Vinpocetine protects against α-syn-induced toxicity in vivo. (A) Experimental time flow. Grey bar: time point of stereotactical injection. (B) Experimental groups. Mice were injected stereotactically with either NaCl (control injection) or rAAV to overexpress luciferase (rAAV-Luc, control protein), or alpha-synuclein (rAAV-α-syn). Animals of each injection group were then randomized with a 1:1 allocation to be treated with once daily intraperitoneal injections of either solvent or vinpocetine for a 9-week period. (C) Representative images of the substantia nigra, immunostained for tyrosine hydroxylase (TH, grey) to identify dopaminergic neurons in solvent treated mice. Circle: area of cell loss upon α-syn overexpression. (D) Quantification of TH^+ cells on the control (Ctrl) side and the stereotactic injection side of solvent treated mice. On the injection side there was a significant loss of TH^+ cells (dark grey bar, right panel) after α-syn overexpression. (E) Images of the TH-immunostained substantia nigra of vinpocetine treated mice of the three injection groups. […] (F) Quantification of the number of TH^+ cells on the control (Ctrl) side and the stereotactic injection side of vinpocetine treated mice. […] Data are mean±s.e.m. Scale bars: 1 mm.
To investigate the neurotoxicity of α-syn in vivo, recombinant adeno-associated viral (rAAV) vectors were stereotactically injected into the substantia nigra of 11 weeks old mice to overexpress human wild type α-syn (rAAV-α-syn; FIG. 5A). The injection of rAAV vectors expressing luciferase (rAAV-luc) or injections with NaCl were used as controls for the toxicity of viral-mediated protein overexpression or the injection procedure itself. The treatment started one week after the intranigral injections. Therefore, the mice of each injection group (NaCl, rAAV-luc, and rAAV-α-syn) were randomized to be treated by daily intraperitoneal injections with 25 mg vinpocetine in solvent or the corresponding volume of solvent alone (FIG. 5B). All animals survived the injection procedure and treatment period. A subgroup of animals were not treated and sacrificed three weeks after injection to determine the transduction rate for rAAV-α-syn and rAAV-luc (each n=3).
To quantify the extent of neurodegeneration induced by rAAV mediated overexpression of α-syn, tyrosine-hydroxylase (TH) stainings of the substantia nigra and the striatum were performed. The number of TH^+ cells was determined by stereological counting. In the group of NaCl injected mice with solvent treatment, there was no significant difference in the number of TH^+ neurons between the injected (4108±54 cells) and the non-injected side (4168±92 cells, P=0.99, FIG. 5C, upper panel and FIG. 5D, blank columns).
To determine the efficacy of vinpocetine in vivo, the number of TH^+ cells in the substantia nigra was determined in mice treated with daily injections of 25 mg/kg vinpocetine in solvent or the corresponding amount of solvent alone.

α-syn = test: Western blot quantification of α-syn bands; assay type: cell-based, human
microglial marker ibal = details: mouse, in vivo
[3] = test system: α-syn overexpressing LUHMES cells; test: Number of vital DAPI-stained nuclei (cell counts); assay type: cell-based, human; details: 20 μM vinpocetine; α-syn with DMSO 57.0±3.4%
Excerpt: as §1, §2

[4] = test system: α-syn transduced LUHMES neurons; test: High-throughput screening of FDA-approved drugs for neuroprotective efficacy against α-syn (propidium iodide / Hoechst 33342 survival); assay type: cell-based, human; details: 3 μM and 10 μM, each in triplicates (six runs); six days after transduction
[5] = vinpocetine treated mice, daily intraperitoneal 25 mg/kg

Cc1ccc([N+](=O)[O-])cc1S(=O)(=O)N(C)C [BRL 50481]
effect of specific PDE inhibitors on α-syn mediated toxicity (LDH release) ([1]; different concentrations): did not have an effect

vinpocetine
effect of specific PDE inhibitors on α-syn mediated toxicity (LDH release) ([1]; different concentrations): significant protection in a dose dependent manner
relative CellEvent signal (activated caspase 3 and 7) (caspase 3 and 7): 25.6±2.1
difference in number of TH+ neurons between solvent and vinpocetine treatment ([2]; NaCl and rAAV-luc injection groups): no difference
number of TH+ cells in the substantia nigra on the rAAV-α-syn injection side ([2]; mice, daily intraperitoneal 25 mg/kg vinpocetine, 9-week period, solvent treated 2915±79): 3870±141 cells and 3870±14 cells
protection against α-syn-induced cell death of TH+ neurons in vivo ([2]; rAAV-α-syn injected mice, vinpocetine once daily intraperitoneal, 9 weeks, FIG. 5F): completely prevented α-syn-induced cell death
number of TH+ cells on the injection side, NaCl injected mice [2, 5]: 3984±160 cells
number of TH+ cells on the injection side, rAAV-luc injected mice [2, 5]: 3860±138 cells
reduction of density of 37 kDa α-syn band compared to α-syn overexpressing cells treated with DMSO (α-syn; 20 μM vinpocetine): 52.2±6.6%
α-syn monomer band compared to untransduced controls (α-syn; 20 μM vinpocetine, DMSO treated α-syn cells 3.4±0.1-fold): 5.1±0.4 fold
change in other α-syn bands (α-syn; vinpocetine treatment, FIG. 3G,H): no change
ibal-immunoreactivity, vinpocetine versus solvent treatment (microglial marker ibal): nor any differences between vinpocetine and solvent treatment
cells survived (cell number compared to untransduced controls) [3]: 85.1±4.1%

OCCN(CCO)c1nc(N2CCCCC2)c2nc(N(CCO)CCO)nc(N3CCCCC3)c2n1 [dipyridamole]
LDH level compared to α-syn overexpressing LUHMES cells with DMSO treatment ([1]; Five μM dipyridamole): 77.0±5.1%
protective hit (Z-score above 2.5) in cell survival screening [4]: protective in all six runs

COC(=O)C1=C(C)NC(C)=C(C(=O)OC(C)C)C1c1cccc2nonc12 (stereo not drawn) [isradipine]
effect of cation channel blockers on α-syn mediated toxicity (LDH release) ([1]; different concentrations, FIG. 4A,B): did not affect

Cc1[nH]c(=O)c(C#N)cc1-c1ccncc1 [Milrinone]
effect of specific PDE inhibitors on α-syn mediated toxicity (LDH release) ([1]; different concentrations): did not have an effect

COc1ccc(Cc2nn3c([C@@H](CCCc4ccccc4)[C@@H](C)O)nc(C)c3c(=O)[nH]2)cc1OC [Bay60-7550]
effect of specific PDE inhibitors on α-syn mediated toxicity (LDH release) ([1]; different concentrations): did not have an effect

CCCc1nn(C)c2c(=O)[nH]c(-c3cc(S(=O)(=O)N4CCN(C)CC4)ccc3OCC)nc12 [Sildenafil]
effect of specific PDE inhibitors on α-syn mediated toxicity (LDH release) ([1]; different concentrations): did not have an effect

COc1ccc(C2CNC(=O)C2)cc1OC1CCCC1 (stereo not drawn) [Rolipram]
effect of specific PDE inhibitors on α-syn mediated toxicity (LDH release) ([1]; different concentrations): did not have an effect

Nc1nc(-c2nn(Cc3ccccc3F)c3ncccc23)ncc1C1CC1 [BAY41-2272]
relative LDH release compared to α-syn overexpressing control cells ([1]; 1 μM BAY41-2272): 56.2±7.8%
change of 37 kDa α-Syn band (Western blot, C20 antibody) (α-syn; α-Syn-transduced neurons with forskolin or BAY41-2272, FIG. 4d,e): reduction of a 37 kDa α-Syn band

C[C@H](Cc1nc2c(cnn2-c2ccccc2Cl)c(=O)[nH]1)C(F)(F)F [Bay 73-6691]
effect of specific PDE inhibitors on α-syn mediated toxicity (LDH release) ([1]; different concentrations): did not have an effect

NC1=N[C@H](O)[C@H]2[C@H]3O[C@]4(O)O[C@@H]([C@@H](O)[C@@]2(N1)[C@@H]4O)[C@]3(O)CO [tetrodotoxin]
effect of cation channel blockers on α-syn mediated toxicity (LDH release) [1]: did not affect
